Measurements from patent US20170202219A1, “CLOQUINTOCET SALTS FOR SAFENING PYROXSULAM COMPOSITIONS” (Dow AgroSciences LLC, priority 2016, published 2017).
Read-outs that look alike come from different tables or passages of the source.

Experiments:
[1] = system: wild oats (Avena fatua L., AVEFA); assay: Greenhouse evaluation, control of wild oats; type: in vivo; conditions: pyroxsulam:cloquintocet (AE) 1:2.1, postemergence spray
Source text: A peat based potting soil, Metro-mix 360, (produced by Sun Gro Horticulture Canada CM Ltd) was used as the soil media for this test. Metro-mix 360 is a growing medium consisting of Canadian sphagnum peat moss, coarse perlite, bark ash, starter nutrient charge (with gypsum) and slow release nitrogen and dolomitic limestone. Several seeds of each crop or weed species were planted in 10 cm square pots and top watered twice daily. Plant material was propagated in greenhouse zone E2 at temperatures ranging from 18 to 20° C. and 50 to 60% relative humidity. Natural light was supplemented with 1000-watt metal halide overhead lamps with an average illumination of 500 microeinsteins per square meter per second (μE m^−2 s^−1) photosynthetic active radiation (PAR). Day length was 16 hours. Plant material was top-watered prior to treatment and sub-irrigated after treatment.
Herbicides were applied with a track sprayer manufactured by Allen Machine Works and located in building 306, room E1-483, at the Dow AgroSciences Indianapolis, Ind. Global Headquarters site (9330 Zionsville Road, Indianapolis, Ind., USA). The track sprayer was calibrated to deliver 50 L/ha at 40 psi (262 kPa) pressure utilizing an 8001E even flat fan nozzle tip with a speed of 1.6 mph (2.6 km/h). The nozzle height was 46 cm above the plant canopy. Appropriate amounts of formulated product were added to vials as calculated by the software package ARM8 (Gylling Data Management Inc.). The vials contained a pH 7 phosphate buffer (Fischer Scientific) and the herbicide aliquots were diluted to a total volume of 60 ml. The growth stage of the crop and weed species at application was 2 to 4 leaf (Table 11). The application rates were 0, 17.8 and 37.6 g ai/ha of pyroxsulam for crop tolerance comparisons and 0, 2.35 and 4.7 g ai/ha of pyroxsulam for weed control comparisons. Cloquintocet was applied at a 1:2.1 ratio of pyroxsulam (g ai):cloquintocet (g ae) in all treatments containing the safener. Treatments were replicated 4 times. Plants were returned to the greenhouse after treatment and sub-watered throughout the duration of the experiment. Plant material was fertilized twice weekly with Hoagland's fertilizer solution that is readily available in the greenhouses. Percent visual injury assessments were made on a scale of 0 to 100% as compared to the untreated control plants (where 0 is equal to no injury and 100 is equal to complete death of the plant.
Visual determination of the control of wild oats (Avena fatua L., AVEFA) treated with pyroxsulam alone and with several forms of cloquintocet was conducted. All forms of cloquintocet were applied at a 1:2.1 weight ratio of pyroxsulam:cloquintocet (AE).

cell membranes [2] = system: cell membranes
[3] = Water solubility of cloquintocet salts at 20° C.
[4] = system: spring wheat (Triticum aestivum L., TRZAS); conditions: pyroxsulam:cloquintocet (AE) 1:2.1, postemergence spray
[5] = system: durum wheat (Triticum durum L. TRZDU); conditions: pyroxsulam:cloquintocet (AE) 1:2.1, postemergence spray
cell membranes [6] = system: cell membranes; remark: listed apart in the source
cell membranes [7] = assay: Neutral Red Release (NRR) assay, eye irritation potential of aqueous CQC salt solutions; conditions: for NRR50, mg ae/mL: aqueous solution of the CQC salt diluted in PBS, NRR50 corrected to CQC acid equivalent concentration
[8] = solubility solution, water, 20° C.

O=C(O)COc1ccc(Cl)c2cccnc12 [Acid, Cloquintocet]
AVEFA Control 21 DAA (% Control) ([1]; pyroxsulam 2.35 g ai/ha): 96 % Control | AVEFA Control 21 DAA (% Control) ([1]; pyroxsulam 4.7 g ai/ha): 99 % Control | NRR50, mg ae/mL (cell membranes [2]): 9 mg ae/mL | Calculated water solubility wt % ai ([3]; pH 7 buffer solution, 20° C.): 1.4 wt % ai | Density ([3]; pH 7 buffer solution, 20° C.): 1.0 g/mL | Neat pH ([3]; pH 7 buffer solution, 20° C.): 5.6 | Water Solubility wt % ae ([3]; pH 7 buffer solution, 20° C.): 1.4 wt % ae | Water Solubility wt % ae ([3]; pH 7 buffer solution, 20° C., listed as CQC acid): about 1.4 wt % ae

OCCNCCO [Diethanolamine]
AVEFA Control 21 DAA (% Control) ([1]; pyroxsulam 2.35 g ai/ha): 88 % Control | AVEFA Control 21 DAA (% Control) ([1]; pyroxsulam 4.7 g ai/ha): 94 % Control

CCNCC [Diethylamine]
AVEFA Control 21 DAA (% Control) ([1]; pyroxsulam 2.35 g ai/ha): 88 % Control | AVEFA Control 21 DAA (% Control) ([1]; pyroxsulam 4.7 g ai/ha): 99 % Control | TRZAS Injury 22 DAA (% Injury) ([4]; pyroxsulam 18.8 g ai/ha): 5 % Injury | TRZAS Injury 22 DAA (% Injury) ([4]; pyroxsulam 37.6 g ai/ha): 15 % Injury | TRZDU Injury 22 DAA (% Injury) ([5]; pyroxsulam 18.8 g ai/ha): 12 % Injury | TRZDU Injury 22 DAA (% Injury) ([5]; pyroxsulam 37.6 g ai/ha): 18 % Injury

CC(O)CNCC(C)O (centres unmarked) [Diisopropanolamine]
Density [3, 8]: 1.1 g/mL | Neat pH [3, 8]: 6.4

CC(C)NC(C)C [Diisopropylamine]
Density [3]: 1.1 g/mL | Neat pH [3]: 5.9

CNC [Dimethylamine]
AVEFA Control 21 DAA (% Control) ([1]; pyroxsulam 2.35 g ai/ha): 88 % Control | AVEFA Control 21 DAA (% Control) ([1]; pyroxsulam 4.7 g ai/ha): 90 % Control | TRZAS Injury 22 DAA (% Injury) ([4]; pyroxsulam 18.8 g ai/ha): 11 % Injury | TRZAS Injury 22 DAA (% Injury) ([4]; pyroxsulam 37.6 g ai/ha): 11 % Injury | TRZDU Injury 22 DAA (% Injury) ([5]; pyroxsulam 18.8 g ai/ha): 9 % Injury | TRZDU Injury 22 DAA (% Injury) ([5]; pyroxsulam 37.6 g ai/ha): 15 % Injury | Density [3]: 1.2 g/mL | Neat pH [3]: 6

CC(O)CN (centres unmarked) [Isopropanolamine]
AVEFA Control 21 DAA (% Control) ([1]; pyroxsulam 2.35 g ai/ha): 80 % Control | AVEFA Control 21 DAA (% Control) ([1]; pyroxsulam 4.7 g ai/ha): 90 % Control | TRZAS Injury 22 DAA (% Injury) ([4]; pyroxsulam 18.8 g ai/ha): 2 % Injury | TRZAS Injury 22 DAA (% Injury) ([4]; pyroxsulam 37.6 g ai/ha): 20 % Injury | TRZDU Injury 22 DAA (% Injury) ([5]; pyroxsulam 18.8 g ai/ha): 9 % Injury | TRZDU Injury 22 DAA (% Injury) ([5]; pyroxsulam 37.6 g ai/ha): 12 % Injury | Density [3]: 1.1 g/mL | Neat pH [3, 8]: 7.4 | NRR50 (% v/v) (cell membranes [6]): 29 % v/v | NRR50, mg ae/mL (cell membranes [6]): 56 mg ae/mL

CC(C)N [Isopropylamine]
AVEFA Control 21 DAA (% Control) ([1]; pyroxsulam 2.35 g ai/ha): 90 % Control | AVEFA Control 21 DAA (% Control) ([1]; pyroxsulam 4.7 g ai/ha): 99 % Control | Density [3]: 1.1 g/mL | Neat pH [3]: 5.7

NCCO [Monoethanolamine]
Density [3, 8]: 1.1 g/mL | Neat pH [3, 8]: 6.3

CN(C)CCO [N,N-dimethylethanolamine]
Neat pH [3, 8]: 5.7

COc1cc(OC)n2nc(NS(=O)(=O)c3c(C(F)(F)F)ccnc3OC)nc2n1 [Pyroxsulam, N-(5,7-dimethoxy [1,2,4]triazolo [1,5-a]pyrimidin-2-yl)-2-methoxy-4-(trifluoromethyl)pyridine-3-sulfonamide]
AVEFA Control 21 DAA (% Control) ([1]; pyroxsulam 2.35 g ai/ha): 86 % Control | AVEFA Control 21 DAA (% Control) ([1]; pyroxsulam 4.7 g ai/ha): 98 % Control

CCCCCCCCCCCCOS(=O)(=O)[O-].[Na+] [SDS, Sodium dodecyl sulfate]
NRR assay result of positive control (cell membranes [7]; 5 mg/ml, two independent assay replicates): positive

CCCCCC(C)OC(=O)COc1ccc(Cl)c2cccnc12 (centres unmarked) [mexyl, cloquintocet-mexyl, reference compound]
AVEFA Control 21 DAA (% Control) ([1]; pyroxsulam 2.35 g ai/ha): 71 % Control | AVEFA Control 21 DAA (% Control) ([1]; pyroxsulam 4.7 g ai/ha): 84 % Control

Ammonium [reference compound]
NRR50, mg ae/mL (cell membranes [7]): 3 mg ae/mL | Density [3, 8]: 1.0 g/mL | Neat pH [3, 8]: 5.7

cloquintocet choline salt
AVEFA Control 21 DAA (% Control) ([1]; pyroxsulam 2.35 g ai/ha): 94 % Control | AVEFA Control 21 DAA (% Control) ([1]; pyroxsulam 4.7 g ai/ha): 99 % Control | TRZAS Injury 22 DAA (% Injury) ([4]; pyroxsulam 18.8 g ai/ha): 6 % Injury | TRZAS Injury 22 DAA (% Injury) ([4]; pyroxsulam 37.6 g ai/ha): 21 % Injury | NRR50, mg ae/mL (cell membranes [7]): 213 mg ae/mL | TRZDU Injury 22 DAA (% Injury) ([5]; pyroxsulam 18.8 g ai/ha): 9 % Injury | TRZDU Injury 22 DAA (% Injury) ([5]; pyroxsulam 37.6 g ai/ha): 12 % Injury | Density [3]: 1.1 g/mL | Neat pH [3]: 6.8
